Values of other authors, collected in US20130317029A1 (PORTOLA PHARMACEUTICALS, INC., priority 2010, published 2013).

Tests used:
[1] = system: refractory NHL and chronic lymphocytic leukemia; settings: cited from earlier work
ITAM signaling = settings: in response to various stimuli, including FcεR1 and BCR induced Syk activation; cited from earlier work
JAK kinases = settings: cited from earlier work
Src kinsase = settings: cited from earlier work
[2] = system: lymphoma cell lines and primary human lymphoma samples; settings: cited from earlier work

COc1cc(Nc2ncc(F)c(Nc3ccc4c(n3)NC(=O)C(C)(C)O4)n2)cc(OC)c1OC [Example R406]
phase II clinical trial outcome [1]: favorable results
inhibition of ITAM signaling (ITAM signaling): inhibit ITAM signaling
activity against JAK kinases (JAK kinases): active
activity against Src kinase (Src kinsase): not against
BCR signaling ([2]; lymphoma cell lines and primary human lymphoma samples): attenuates BCR signaling
apoptosis ([2]; lymphoma cell lines): resulting in apoptosis
